melting point: 80 to 82 °C
SMILES: COc1c(-c2cn(-c3c(C(F)(F)F)c(C(F)(F)C(F)(F)F)nn3C)nn2)cccc1N(C)C(=O)c1c(F)cc(F)cc1F

From patent US20130253011A1, “INSECTICIDAL COMPOUNDS” (SYNGENTA PARTICIPATIONS AG, priority 2010, published 2013)
